From publication PMC9529094, “Identification of natural cytochalasins as leads for neglected tropical diseases drug discovery” (PLoS ONE, 2022)
Where two headings read alike, the source gives them in different places.

Legend:
[1] = test system: intracellular T. cruzi Tulahuen LacZ amastigotes; assay: microbe, parasite or virus in culture; format: cell-based, Trypanosoma cruzi
Procedure: (§1) The epimastigote forms of the T. cruzi Tulahuen strain, which expresses the E. coli β-galactosidase gene lacZ [11], were grown in liver infusion tryptone (LIT) supplemented with 10% FCS (Cultilab) and 1% pen/strep (Sigma–Aldrich) at 28°C. Metacyclogenesis from epimastigotes to trypomastigotes was induced by the incubation of the epimastigotes in Grace’s insect medium (Sigma-Aldrich, 28°C) every 5 days. After 5 days, the trypomastigote forms were used to infect the HFF-1 cells. The promastigote forms of L. infantum were maintained in Schneider’s insect medium (Sigma-Aldrich) supplemented with 10% FCS (Cultilab) and 1% pen/strep (Sigma-Aldrich) at 28°C and subcultured every 6 or 7 days.
In vitro assays against T. cruzi were performed as described previously. HFF-1 human fibroblasts were seeded at 4x10^3/well in 96-well tissue culture plates in DMEM (Cultilab) without phenol red and then incubated overnight (37°C, 5% CO2). Next, trypomastigotes were added at 4x10^4/well, and the plates were incubated (37°C, 5% CO2). After 24 h, 2-fold serial dilutions of the test compounds were added at concentrations ranging from 64 to 0.12 μM, and the plates were then incubated (37°C, 5% CO2). Each compound concentration was evaluated in duplicate. All the plates included BZ (64–0.12 μM) (Sigma-Aldrich) as a positive control and untreated wells (100% growth) as a negative control. After 120 h, chlorophenol red β-D-galactopyranoside (CPRG, Sigma-Aldrich) was added to each well. The absorbance was measured at 570 nm in an automated SpectraMax 384 microplate reader (Sunnyvale, CA, USA), and the data were analysed using GraphPad Prism version 8.0 (San Diego, CA, USA) for IC50 value calculation.
(§2) The analyses were performed using GraphPad Prism version 8.0 (GraphPad Software, San Diego, CA, USA). Both the IC50 and CC50 values were calculated by adjusting the sigmoid dose-response curves, and the selectivity index (SI) values were determined by CC50/IC50 [16]. Statistical analyses were performed using one-way ANOVA followed by Dunnett’s multiple comparison test.

[2] = in vitro; format: cell-based; settings: human, 72 h, MTS
Procedure: (§3) THP-1 (human monocyte cell line) cells were cultivated in RPMI medium supplemented with 10% foetal calf serum (FCS) (Cultilab, Campinas, SP, BR) and 1% penicillin and streptomycin (pen/strep—Sigma-Aldrich) at 37°C under 5% CO2, and HFF-1 (human fibroblast) and HepG2 (hepatocytes) cells were cultivated in DMEM without phenol red (Cultilab) supplemented with 10% FBS (Sigma-Aldrich) and 1% pen/strep at 37°C under 5% CO2.
The cytotoxicity of the compounds against HFF-1 fibroblasts and HepG2 hepatocytes was evaluated using the MTS tetrazolium assay (Promega, Madison, WI, USA). HFF-1 fibroblasts were seeded at 4x10^3/well in 96-well culture plates in DMEM without phenol red and incubated overnight (37°C, 5% CO2). HepG2 hepatocytes were seeded at 7x10^3/well in 96-well culture plates in DMEM (Cultilab) with supplements (10% FCS, 1% pen/strep) and incubated overnight (37°C, 5% CO2). The compounds were added in 2-fold serial dilutions at the same concentrations described before, and the plates were incubated as described before. Each compound concentration was evaluated in duplicate. All the plates included doxorubicin (DOX) (Sigma-Aldrich) as a positive control (10–0.01 μM) and untreated wells as a negative control (100% growth). After 72 h, 15 μL of MTS (Promega) was added, and the plates were incubated for 4 h. The absorbance was measured at 490 nm in an automated SpectraMax 384 microplate reader (Sunnyvale, CA, USA), and the data were analysed using GraphPad Prism version 8.0 for CC50 value calculation. The percentage of nonviable cells was determined and compared to the negative control wells (100% growth).

[3] = test system: intracellular L. infantum amastigotes; assay: microbe, parasite or virus in culture; format: cell-based, Leishmania infantum
Procedure: as §1
In the intracellular amastigote assay, THP-1 cells were seeded at 2x10^4/well (RPMI-1640, 100 μL) with phorbol 12-myristate 13-acetate (PMA) at 20 ng/mL for differentiation into macrophages. After incubation for 72 h (5% CO2, 37°C), the medium was aspirated, and late-stage L. infantum promastigotes were added (2x10^5/well, 100 μL). Following 24 h of incubation, the medium was aspirated to clear extracellular parasites, and the compounds were added in serial dilutions (2-fold) to final concentrations of 64–0.12 μM. The plates included negative controls (100% growth) and MIL (64–0.12 μM) as a positive control. After 120 h of incubation, the medium was removed, and the cells were fixed in methanol and stained with Giemsa. The average number of intracellular amastigotes per THP-1-cell was determined using an inverted microscope and a cell counter. Growth inhibition is expressed as a percentage of the average number of amastigotes per macrophage in the negative control wells. The IC50 values were obtained using GraphPad Prism version 8.0.
as §2

[4] = in vitro; format: cell-based; settings: human; 72 h, resazurin; read-out: THP-1 CC50 (μM ± SD)
Procedure: as §3
THP-1 cells were seeded at 2x10^4/well in 96-well culture plates in RPMI 1640 supplemented (10% FCS, 1% pen/strep) and incubated overnight (37°C, 5% CO2). The compounds were added in 2-fold serial dilutions (64–0.12 μM), and the plates were incubated as described before. Each compound concentration was evaluated in duplicate. All the plates included DOX (Sigma-Aldrich) as a positive control (10–0.01 μM) and untreated wells as a negative control (100% growth). After 72 h, 20 μL of resazurin (Sigma-Aldrich) was added, and the plates were incubated for 4 h. The absorbance was measured at 536 and 588 nm in an automated microplate reader SpectraMax Gemini, and the data were analysed using GraphPad Prism version 8.0 for CC50 value calculation. The percentage of nonviable cells was determined and compared to the negative control wells (100% growth).

Row | Compound | IC50 ([1]; Trypanosoma cruzi, intracellular amastigotes, Tulahuen LacZ, HFF-1 host cells, 120 h, read-out: T. cruzi IC50 (μM ± SD)) [µM] | SI^1 (CC50 HFF-1/IC50 T. cruzi) ([1]; selectivity index) | CC50 ([2]; read-out: HFF-1 CC50 (μM ± SD)) [µM] | IC50 ([3]; Leishmania infantum, THP-1, 120 h, intracellular amastigotes in THP-1 macrophages, 120 h, read-out: L. infantum IC50 (μM ± SD)) [µM] | SI^2 (CC50 THP-1/IC50 L. infantum) ([3]; selectivity index) | CC50 [4] [µM] | CC50 ([2]; read-out: HepG2 CC50 (μM ± SD)) [µM]
1 | O=C(Cn1ccnc1[N+](=O)[O-])NCc1ccccc1 [BZ, benznidazole, reference compound] | 5.2 ± 1.87 | >12.3 | > 64 |  |  |  | 
2 | CCCCCCCCCCCCCCCCOP(=O)([O-])OCC[N+](C)(C)C [MIL, miltefosine, reference compound] |  |  |  | 1.1 ± 0.16 | 53.14 | 58.5 ± 5.37 | 
3 | COc1cccc2c1C(=O)c1c(O)c3c(c(O)c1C2=O)C[C@@](O)(C(=O)CO)C[C@@H]3O[C@H]1C[C@H](N)[C@H](O)[C@H](C)O1 [DOX, doxorubicin, reference compound] |  |  | 0.69 ± 0.08 |  |  | 0.97 ± 0.31 | 0.24 ± 0.06
